A word on the IC50: it is the concentration that gives 50% inhibition.

For this assay, the target named is PD-1/PD-L1 protein/protein interaction (Homo sapiens (Human), UniProt Q9NZQ7). The assay can be described thus: PD-1/PD-L1 Homogeneous Time-Resolved Fluorescence (HTRF) Binding Assay. Conditions: recombinant human PD-L1 (19-238) His-tag, human PD-1 (25-167) Fc tag; 25° C., PBS pH 7.4. The procedure: Example A. PD-1/PD-L1 Homogeneous Time-Resolved Fluorescence (HTRF) Binding Assay
The assays were conducted in a standard black 384-well polystyrene plate with a final volume of 20 μL. Inhibitors were first serially diluted in DMSO and then added to the plate wells before the addition of other reaction components. The final concentration of DMSO in the assay was 1%. The assays were carried out at 25° C. in the PBS buffer (pH 7.4) with 0.05% Tween-20 and 0.1% BSA. Recombinant human PD-L1 protein (19-238) with a His-tag at the C-terminus was purchased from AcroBiosystems (PD1-H5229). Recombinant human PD-1 protein (25-167) with Fc tag at the C-terminus was also purchased from AcroBiosystems (PD1-H5257). PD-L1 and PD-1 proteins were diluted in the assay buffer and 10 μL was added to the plate well. Plates were centrifuged and proteins were preincubated with inhibitors for 40 minutes. The incubation was followed by the addition of 10 μL of HTRF detection buffer supplemented with Europium cryptate-labeled anti-human IgG (PerkinElmer-AD0212) specific for Fc and anti-His antibody conjugated to SureLight®-Allophycocyanin (APC, PerkinElmer-AD0059H). After centrifugation, the plate was incubated at 25° C. for 60 min. before reading on a PHERAstar FS plate reader (665 nm/620 nm ratio). Final concentrations in the assay were […], 10 nM PD-L1, 1 nM europium anti-human IgG and 20 nM anti-His-Allophycocyanin. IC50 determination was performed by fitting the curve of percent control activity versus the log of the inhibitor concentration using the GraphPad Prism 5.0 software.
Data obtained for the Example compounds using the PD-1/PD-L homogenous time-resolved fluorescence (HTRF) binding assay described in Example A is provided in Table 1.
Background: TR-FRET usually uses a lanthanide donor and a delayed reading to cut background.

Chain of PD-1/PD-L1 protein/protein interaction (Q9NZQ7 19-238): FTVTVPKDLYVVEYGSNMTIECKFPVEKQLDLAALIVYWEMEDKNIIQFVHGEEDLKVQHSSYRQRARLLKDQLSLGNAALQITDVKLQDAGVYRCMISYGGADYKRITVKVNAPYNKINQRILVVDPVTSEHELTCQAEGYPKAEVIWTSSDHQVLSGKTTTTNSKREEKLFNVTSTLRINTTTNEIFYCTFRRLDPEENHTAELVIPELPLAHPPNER

For `Cc1c(-c2cccc(OCCO)c2)cccc1-c1nc2c(s1)CNCC2` [Example 36, 2-{[2′-methyl-3′-(4,5,6,7-tetrahydro[1,3]thiazolo[5,4-c]pyridin-2-yl)biphenyl-3-yl]oxy}ethanol], the half-maximal inhibitory concentration (IC50) fell in the range of 100 to 500 nM.
On to `COc1cc(OC)c(F)c(-c2cccc(-c3nc4c(s3)CNCC4)c2C)c1F` [Example 37, 2-(2′,6′-difluoro-3′,5′-dimethoxy-2-methylbiphenyl-3-yl)-4,5,6,7-tetrahydro[1,3]thiazolo[5,4-c]pyridine], for which the IC50 was at most 100 nM.
Then `Cc1c(-c2cccc(C(N)=O)c2)cccc1-c1nc2c(s1)CNCC2` [Example 38, 2′-methyl-3′-(4,5,6,7-tetrahydro[1,3]thiazolo[5,4-c]pyridin-2-yl)biphenyl-3-carboxamide], with at most 100 nM; and `Cc1c(-c2cccc(CC(N)=O)c2)cccc1-c1nc2c(s1)CNCC2` [Example 39, 2-[2′-methyl-3′-(4,5,6,7-tetrahydro[1,3]thiazolo[5,4-c]pyridin-2-yl)biphenyl-3-yl]acetamide], with at most 100 nM.
The value for `Cc1c(-c2nc3c(s2)CNCC3)cccc1-c1cccc2c1cnn2C` [Example 40, 2-[2-methyl-3-(1-methyl-1H-indazol-4-yl)phenyl]-4,5,6,7-tetrahydro[1,3]thiazolo[5,4-c]pyridine] was at most 100 nM.

These data come from patent publication US11608337B2, “Heterocyclic compounds as immunomodulators” (Incyte Corporation, priority 2016, dated 2023).
